Where two headings read alike, the source gives them in different places.
Assays:
[1] = biological target: T1, prostaglandin dehydrogenase (PGDH) (Sus scrofa, UniProt A0ACM8QJV0); experiment: Prostaglandin dehydrogenase (PGDH) inhibiting action, method of Marrazzi and Matschinsky, PGDH preparation from pig lung; format: biochemical
T1 construct: on a PGDH preparation from pig lung; from tissue; host or cells: pig lung
T1 sequence (A0ACM8QJV0 1-266): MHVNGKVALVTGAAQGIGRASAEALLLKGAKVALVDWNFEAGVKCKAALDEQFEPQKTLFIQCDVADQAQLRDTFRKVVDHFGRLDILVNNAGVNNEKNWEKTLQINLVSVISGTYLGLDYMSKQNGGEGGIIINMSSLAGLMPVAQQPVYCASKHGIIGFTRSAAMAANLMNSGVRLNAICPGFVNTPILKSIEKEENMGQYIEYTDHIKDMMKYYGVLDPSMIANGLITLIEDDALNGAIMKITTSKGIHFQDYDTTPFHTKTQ
From the text: (§1) The I50%, i.e. the index of inhibition, is defined as the concentration of the substance inhibiting to 50% the function of the corresponding enzyme.

[2] = biological target: prostaglandin-A isomerase (PGAI); experiment: Prostaglandin-A isomerase (PGAI) inhibiting action, method of Jones et al., PGAI preparation from blood plasma of pigs; format: biochemical; conditions: concentration inhibiting enzyme function to 50%; PGAI from pig blood plasma; read-out: I50% inhibiting level in final concentration, PGAI
From the text: as §1

[3] = in vivo; conditions: mouse, po
[4] = test system: cats; experiment: Hypotensive action in narcotized cats (decrease in blood pressure); format: in vivo; conditions: cats narcotized i.p. by 30 mg/kg Pentobarbital
[5] = test system: mice; conditions: against Hydralazine
[6] = test system: prostaglandin dehydrogenase and prostaglandin-A isomerase; experiment: Inhibition of enzymes regulating prostaglandin catabolism (prostaglandin dehydrogenase and prostaglandin-A isomerase), in words; format: biochemical
Method: The prostaglandin-A isomerase (PGAI) inhibiting action of the compounds according to the invention was measured by the method of Jones et al. (Biochim. Biophys. Acta 280, 558, 1972) on a PGAI preparation from the blood plasma of pigs, whereas the prostaglandin dehydrogenase (PGDH) inhibiting action was determined by the method of Marrazzi and Matschinsky (Prostaglandins 1, 373, 1972); on a PGDH preparation from pig lung.

[7] = test system: spontaneously hypertensive (Wistar-Okamoto) rats; experiment: Hypotensive action in spontaneously hypertensive rats, systolic blood pressure in caudal artery by indirect method after oral treatment; format: in vivo; conditions: dose equal to Hydralazine
Method: The hypotensive action of substance 44 was studied also in spontaneously hypertensive (Wistar-Okamoto(rats)Arzneim.- forsch. 6, 222, 1956): the systolic blood pressure was measured in the caudal artery by an indirect method, after oral treatment.

[8] = Tachycardia (inability to cause, compared with Hydralazine); format: in vivo; conditions: against Hydralazine
[9] = concentration inhibiting enzyme function to 50%, PGDH from pig lung, read-out: I50% inhibiting level in final concentration, PGDH

Compound `C[C@]12CC[C@@H]3c4ccc(O)cc4CC[C@H]3[C@@H]1CCC2=O` [Estrone, reference compound] has an IC50 [1] of 10 µM.
`Cc1cc(C)n(-c2ccc(NCc3ccccc3)nn2)n1` [Example 17, 3-Benzylamino-6-(3,5-dimethyl-1-pyrazolyl)-pyridazine] gave an IC50 [1, 9] of 200 µM.
For `Cc1cc(C)n(-c2ccc(N(C)C)nn2)n1` [Example 19, 3-Dimethylamino-6-(3,5-dimethyl-1-pyrizolyl)-pyridazine], the IC50 [2] was 130 µM.
Work on `c1ccc(CNc2ccc(-n3nc(-c4ccccc4)cc3-c3ccccc3)nn2)cc1` [Example 21, 3-Benzylamino-6-(3,5-diphenyl-1-pyrazolyl)-pyridazine] yielded an IC50 [2] of 20 µM.
With `Cc1cc(C)n(-c2ccc(NN)nn2)n1` [Example 25, 3-hydrazino-6-(3,5-dimethyl-1-pyrazolyl)-pyridazine] the LD50 [3] was 200 mg/kg, the IC50 [2] was 25 µM and the “Decrease in blood pressure by 1 mg/kg” value [4] was -30 Hgmm.
In the case of `NNc1ccc(-n2nc(C3CC3)cc2C2CC2)nn1` [Example 26, 3-Hydrazino-6-(3,5-dicyclopropyl-1-pyrazolyl)-pyridazine], the LD50 [3] is reported as 100 mg/kg and the “Decrease in blood pressure by 1 mg/kg” value [4] is reported as -40 Hgmm.
With `CCc1cc(CC)n(-c2ccc(NN)nn2)n1` [Example 29, 3-Hydrazino-6-(3,5-diethyl-1-pyrazolyl)-pridazine] the LD50 [3] was about 150 mg/kg and the “Decrease in blood pressure by 1 mg/kg” value [4] was -40 Hgmm.
For `Cc1nn(-c2ccc(NN)nn2)c(C)c1C` [Example 31, 3-Hydrazino-6-(3,4,5-trimethyl-1-pyrazolyl)-pridazine], the LD50 [3] was 100 mg/kg, the IC50 [2] was 60 µM and the “Decrease in blood pressure by 1 mg/kg” value [4] was -15 Hgmm.
For `Cc1nn(-c2ccc(NN)nn2)c(C)c1Cl` [Example 34, 3-Hydrazino-6-(3,5-dimethyl-4-chloro-1-pyrazolyl)-pyridazine], the IC50 [1, 9] was 110 µM, the LD50 [3] was over 200 mg/kg and the “Decrease in blood pressure by 1 mg/kg” value [4] was -20 Hgmm.
In the case of `Cc1nn(-c2ccc(NN)nn2)c(C)c1Br` [Example 35, 3-Hydrazini-6-(3,5-dimethyl-4-bromo-1-pyrazolyl)-pyridazine], the IC50 [2] is reported as 80 µM.
For `NNc1ccc(-n2nccc2N)nn1` [Example 40, 3-Hydrazino-6-(5-amino-1-pyrazolyl)-pyridazine], the LD50 [3] was 200 mg/kg and the “Decrease in blood pressure by 1 mg/kg” value [4] was -30 Hgmm.
With `Cc1nn(-c2ccc(NN)nn2)c(C)c1N` [Example 44, 3-hydrazino-6-(3,5-dimethyl-4-amino-1-pyrazolyl)-pyridazine] the “Toxicity compared with Hydralazine” value [5] was “extraordinarily favorable toxicity”, the “Prostaglandin catabolism inhibiting effect” value [6] was “prostaglandin catabolism inhibiting effect” and the “Duration of effect compared with Hydralazine at equal dose” value [7] was “same duration of effect”. The “Effectivity (systolic blood pressure) compared with Hydralazine at equal dose” value [7] was “same effectivity”, the LD50 [3] was over 200 mg/kg and the Tachycardia [8] was “inability to cause tachycardia”. The IC50 [2] was 70 µM and the Decrease in blood pressure by 1 mg/kg [4] was -40 Hgmm.
In the case of `NNc1ccc(-n2cc(N)cn2)nn1` [Example 45, 3-Hydrazino-6-(4-amino-1-pyrazolyl)-pyridazine], the LD50 [3] is reported as 200 mg/kg and the “Decrease in blood pressure by 1 mg/kg” value [4] is reported as -30 Hgmm.
With `CCc1nn(-c2ccc(NN)nn2)c(CC)c1N` [Example 46, 3-Hydrazino-6-(3,5-diethyl-4-amino-1-pyrazolyl)-pyridazine] the LD50 [3] was 200 mg/kg and the “Decrease in blood pressure by 1 mg/kg” value [4] was -50 Hgmm.
With `Cc1nn(-c2ccc(NNC(=O)OC(C)(C)C)nn2)c(C)c1N` [Example 56, 3-(2-tert-butoxycarbonyl-1-hydrazino)-6-(3,5-dimethyl-4-amino-1-pyrazolyl)-pyridazine] the LD50 [3] was 200 mg/kg and the “Decrease in blood pressure by 1 mg/kg” value [4] was -35 Hgmm.
In the case of `Cl.NNc1nncc2ccccc12` [Hydralazine, 1-hydrazinophthalazine hydrochloride, reference compound], the LD50 [3] is reported as 200 mg/kg, the IC50 [2] is reported as 90 µM and the “Decrease in blood pressure by 1 mg/kg” value [4] is reported as -40 Hgmm.

Source: US4224325A, “3-(1-Pyrazolyl)-pyridazine derivatives and hypotensive compositions thereof” (Richter Gedeon Vegyeszeti Gyar Rt., priority 1977, dated 1980)
